Key:
[1] = test system: imatinib mesylate-resistant chronic myeloid leukemia cells; details: by down-regulating bcr-abl, Alessandro et al, 2008; cited from earlier work
[2] = test system: refractory renal cell carcinoma; test: Phase I clinical study of CTO, patient with refractory renal cell carcinoma; type: in vivo, human; details: 75 mg/m2/day
Protocol: (§1) This invention contemplates treating these cancers and other cancers at any stage from the discovery of the cancer to the advanced stage, starting with the first step of carrying out the genotyping of the primary and secondary tumors. The effectiveness of the CTO treatment is determined by controlled clinical studies. The cancers are evaluated by measuring tumors no more than 14 days before the start of the treatment, and evaluated after 2 cycles of 28 days after day 1 of the administration of the first dose of CTO. The tumor size is measured by the most accurate measurement such as PET-CT, CT scan, MRI scan, x-ray, ultrasound, etc. […]
(§2) “Partial response” means a) for bidimensionally measurable tumors, a decrease of at least 50% in the sum of the products of the largest perpendicular diameters of all measurable tumors as determined by two observations not less than four weeks apart, b) for undimensionally measurable tumors, a decrease by at least 50% in the sum of the largest diameters of all tumors as determined by two observation not less than four weeks apart. […]
After having established the baseline clinical parameters, the patient was given 75 mg/m2/day for a period of 28 days for two cycles and the tumor was measured. […]

[3] = test system: refractory head and neck tumor (PI3KCA, E545K); test: Phase I clinical study of CTO, patient with refractory head and neck cancer; type: in vivo, human; details: 285 mg/m2/day
Excerpt: “Progressive disease” is defined as an increase of 25% or greater in the product of the largest perpendicular diameters for at least one bidimensionally measurable tumor, or an increase of 25% or greater at least one undimensionally measurable tumor or appearance of a new lesion or clinical deterioration. […]

[4] = test system: refractory metastatic colorectal cancer (BRAF V660E); test: Phase I clinical study of CTO, patient with refractory metastatic colorectal cancer; type: in vivo, human; details: 285 mg/m2/day
Protocol: as §1, §2
After having established the baseline clinical parameters, the patient was given 285 mg/m2/day for a period of 28 days for two cycles and the tumor was measured. […]

[5] = test system: Akt and Erk1/2 phosphorylation; details: exosomes-stimulated HUVEC cell; Corrado et al, 2012; cited from earlier work
[6] = test system: refractory NSCLC tumor (EGFR, ELREATS 746-752 V (exon 19)); test: Phase I clinical study of CTO, patient with refractory NSCLC (EGFR exon 19); type: in vivo, human; details: EGFR exon 19 mutation, 219 mg/m2/day
Protocol: as §1, with “etc. The criteria for evaluating response are described in the revised Response Evaluation Criteria in Solid Tumors Guidelines, Eisenhauer et al, 1990 and by the Macdonald Criteria for response to high grade gliomas, Macdonald et al, 1990.” for “etc.”
as §2

[7] = test system: refractory NSCLC tumor (PI3KCA, E545K); test: Phase I clinical study of CTO, patient with refractory NSCLC (PI3KCA, E545K); type: in vivo, human; details: 219 mg/m2/day
Protocol: as §1, §2
In the present invention, a patient with NSCLC who had received prior treatment with paclitaxel, carboplatin erlotinib and docetaxel. […] After having established the baseline clinical parameters, the patient was given 219 mg/m2/day for a period of 28 days for two cycles and the tumor was measured. […]

[8] = FOLFIRI (fluorouracil, leucovorin, irinotecan) regimen; Carrato et al 2013; cited from earlier work
[9] = test system: head and neck cancer; details: cited from earlier work

NC(=O)c1nnn(Cc2cc(Cl)c(C(=O)c3ccc(Cl)cc3)c(Cl)c2)c1N [CAI, Carboxyamidotriazole]
apoptosis [1]: induces apoptosis

NC(=O)c1nnn(Cc2cc(Cl)c(C(=O)c3ccc(Cl)cc3)c(Cl)c2)c1N.O=C(O)c1cc(=O)[nH]c(=O)[nH]1 [CTO, carboxyamidotriazole orotate]
duration of stable disease and partial response ([2]; 28-day cycles, CTO continued): over twelve | tumor response measured after two cycles ([2]; prior IL-2, pegylated IFN, sorafenib, sunitnib, erlotinib, torisel, 28 days, two cycles): responded by not progressing | duration of stable disease and partial response ([3]; 28-day cycles): more than six | tumor response measured after two cycles ([3]; PI3KCA E545K, prior cetuximab, cisplatin, taxotere, 28 days, two cycles): responded by not progressing | duration of stable disease and partial response ([4]; 28-day cycles): six | tumor response measured after two cycles ([4]; prior leucovorin, fluorouracil, oxaliplatin, bevacizumab, cetuximab, capecitabine, panitumumab, irinotecan, 28 days, two cycles): responded to CTO by not progressing | Akt and Erk1/2 phosphorylation [5]: inhibits | duration of stable disease and partial response ([6]; 28-day cycles): more than twelve | tumor response measured after two cycles ([6]; prior carboplatin, paclitaxel, docetaxel, erlotinib, cisplatin, gemcitamide, premetrexed, 28 days, two cycles): responded by not progressing | duration of stable disease and partial response ([7]; 28-day cycles): more than twelve | tumor response measured after two cycles ([7]; prior paclitaxel, carboplatin, erlotinib, docetaxel, 28 days, two cycles): responded by not progressing

CCN(CC)CCNC(=O)c1c(C)[nH]c(/C=C2\C(=O)Nc3ccc(F)cc32)c1C [Sunitnib]
superiority over FOLFIRI alone [8]: did not prove superior over FOLFIRI alone

C#Cc1cccc(Nc2ncnc3cc(OCCOC)c(OCCOC)cc23)c1 [erlotinib]
improvement when added to chemotherapy and radiotherapy [9]: no improvement

— US9089570B2, “Compositions for treating cancers having acquired resitance to prior chemotherapeutic and targeted drugs using carboxyamidotriazole orotate” (TACTICAL THERAPEUTICS INC, priority 2013, dated 2015)
